# Test results from a melting point compilation (Tetko et al.; mined from patent text by program, amines drawn as free bases though some values may be those of a salt).
row,melting point [°C],Compound
1,145 to 146,CSc1noc(C2CC2)c1C(=O)c1ccc(C(F)(F)F)cc1S(C)(=O)=O
2,155 to 157,COc1ccc(C2c3ccccc3C(c3ccc4c(c3)OCO4)C2c2nnn[nH]2)cc1 (configuration not stated)
3,180 to 182,CCN1C(=O)OCC1Cc1ccncc1 (configuration not stated)
4,104 to 105,CN(C)C(=O)Nc1cccc(C(=O)c2ccccc2)c1
5,176 to 180,Brc1ccc(N2CCN(c3ccncc3)CC2)nc1
6,159,O=C(CCSC(=S)Nc1ccc(Cl)cn1)c1ccccc1
7,177 to 179,Cc1cc(C)cc(Sc2cncc3sc(C(N)=O)cc23)c1
8,131 to 132,CCOC(=O)C1=C(NC(=O)Nc2cc(C(=O)OC(C)C)c(Br)cc2Cl)CCC1
9,163 to 164,COc1ccc(COC(=O)c2cc([N+](=O)[O-])c3ccccc3c2O)cc1
10,188 to 190,CC1COc2c(ccc(F)c2F)N1C(=O)C=NO (configuration not stated)
11,259 to 261,COc1ccc2ccc3c4cc5c(cc4nnc3c2c1)OCO5
12,232 to 240,CN1CCc2c(-c3ccc(S(=O)(=O)N(C)C)cc3)cc3c(c2C1)N(C)C(=O)C3=O
13,235 to 236,CCCOc1ccccc1-c1nc2nc(NC)ncc2c(=O)[nH]1
14,189 to 191,CCOCc1nc2c(N)nc3ccccc3c2n1CC(C)(O)CC (configuration not stated)
15,161 to 162,CC(O)CNCc1nc2cc(-c3ccccc3)nnc2c2ccccc12 (configuration not stated)
16,150 to 152,CCN1CCCC1CNC(=O)c1ccc(Nc2ncnc3cc(C(F)(F)F)ccc23)cc1 (configuration not stated)
17,200 to 202,CC1(C)OC(=O)Nc2ccc(-c3sccc3C#N)cc21
18,177 to 179,COc1ccc2c(c1)Sc1ccc(F)cc1C(N1CCN(CCN3CCOC3=O)CC1)C2 (configuration not stated)
19,151 to 152,Cc1cc2c(c(C)c1NC(=O)CC(C)(C)C)C(c1ccc(C(C)C)cc1)CS2 (configuration not stated)
20,> 300,Cc1c(C=CCN)[nH]c(=O)c2c1ccc1nc(Nc3c(Cl)cccc3Cl)n(C)c12
21,117 to 119,Cc1c(NC(=O)c2ccc(OC[C@@H]3CCCO3)cc2)ccc2cc(CNCC3(C)COC3)cnc12
22,162 to 165,Cc1cc(I)cc(C)c1Oc1ccc([N+](=O)[O-])c(Nc2ccc(C#N)cc2)n1
23,81.5 to 82.5,CCCCC[C@@H](CNC(=O)Nc1c(OCC)ccc2c1CCCC2)c1cccc2c1OCO2
24,62 to 63,CC(C)(C)[Si](C)(C)Oc1ccc2cc(Br)ccc2c1
25,176 to 180,Nc1ccc2c(c1Br)COC2=O

row,melting point [°C],Compound
1,189 to 190,CC(=O)c1cccc(C2=C(c3ccc(S(C)(=O)=O)cc3)OC(C)(C)C2=O)c1
2,56 to 58,CC(C(=O)OCC(c1cccc(C(F)(F)F)c1)N1CCNCC1)c1ccc2c(c1)CC(C(C)C)C2 (configuration not stated)
3,215 to 216,CCCOc1ccc2cc(-c3ccc4c(c3)C=C(C(=O)Nc3ccc(CN(C)C5CCOCC5)cc3)CCS4(=O)=O)oc2c1
4,66 to 69,C=CCN1C(=O)C(C)(CN2CCN(c3ccccc3OC)CC2)N=C1c1cccnc1 (configuration not stated)
5,162 to 164,CC(=O)OC1CCC2(C)C(CCC3=C4C(=O)CC(C(C)CCC=O)C4(C)CCC32)C1 (configuration not stated)
6,> 230,CSc1nn2c(N(C)C)cc(C)nc2c1S(=O)(=O)c1ccccc1
7,267 to 269,O=c1[nH]c2ccc(Cl)cc2c(-c2ccccc2)[n+]1[O-]
8,113,COCc1cc(OCc2ccccc2)c2nc(C)n(C)c2c1
9,56 to 57,CCCCCCCCCCCCCCCCC(C(=O)OC)S(C)=O (configuration not stated)
10,135 to 140,O=C(Cc1ccc(F)cc1)Nc1ccc(-n2nc(C(F)(F)F)cc2C2CC2)cc1
11,153 to 154,COc1ccc(C2N(C(C)=O)c3ccccc3-c3c([N+](=O)[O-])cnn32)cc1 (configuration not stated)
12,97 to 99,CC(C)(C)OC(=O)NOCC(O)c1ccccc1 (configuration not stated)
13,39 to 41,COC(=O)CCC(=O)OCc1cc(CCCCCOc2c(Cl)cc(C3=NCCO3)cc2Cl)on1
14,133 to 134,COc1ccc(-c2ccccc2)c2ccc(C)nc12
15,64 to 66,CCCCCCCCCCCCCCN(O)C(=O)N(C)C
16,215 to 217,O=S1CCN(c2nc(N3CCNCC3)cc3c(Cl)cccc23)CC1
17,94 to 96,CCn1ncnc1COc1nc2c(-c3ccccc3)nnc(C)n2c1C1CCCC1
18,211 to 213,O=c1ccc(=O)c2c(=O)c3ccccc3c(=O)c1=2
19,207,Cc1nn(C)c(C(=O)O)c1-c1ccc(Cl)c(C(=O)NCC23CC4CC(CC(C4)C2)C3)c1
20,175 to 177,O=C1c2c(O)ccc(O)c2C(=O)c2c(NCCNCCO)ccc(NCCNCCO)c21
21,127 to 128,COc1ccc(Oc2ccc(Cl)cc2[N+](=O)[O-])c(C=O)c1
22,> 300,NCc1ccn(-c2cc3c(cc2[N+](=O)[O-])[nH]c(=O)c(=O)n3C2CCCCC2)c1
23,93 to 94,COC(=O)C(=O)c1ccc(OCCOc2ccc(OC)c(OC)c2)cc1
24,150 to 151,O=c1[nH]cc(Br)cc1Nc1ccncn1
25,46 to 48,CCOc1ccc(C(=O)OC)c(Cl)n1

row,melting point [°C],Compound
1,220 to 222,O=C(O)C1=Cc2cc(Cl)c(Oc3ccccc3)cc2OC1C(F)(F)F (configuration not stated)
2,114 to 116,N#CCC(=O)NC(C(=O)OC1CCCCC1)c1ccccc1 (configuration not stated)
3,299 to 300,CC(C)(C)Nc1c(NCc2cc3cc(C#N)ccc3o2)c(=O)c1=O
4,95 to 99,COc1cc(C(=O)c2c(-c3ccc(OCCN4CCCC4)cc3)sc3ccc(O)cc23)ccc1CN1CCCC1
5,84,CC(C)(C)CCNC(=O)NCCCl
6,236 to 238,CN1CCN(C(=O)c2nc(-c3ccccc3)nc3c2c2ccc(Cl)cc2n3C)CC1
7,> 300,CCCc1nc2c(N)nc3ccccc3c2n1CC(N)=O
8,52 to 53,CCCCCCCCCCCCCCCCS[C@H]1CCCO[C@H]1CO (relative stereo)
9,161 to 162,S=C=Nc1ccc(-c2nc(-c3cccs3)no2)cc1
10,161 to 163,CC(CCNC(=O)c1ccc(Oc2ccc(F)cc2)o1)N(O)C(N)=O (configuration not stated)
11,130 to 132,Clc1cc(-c2ccc3c(c2)CCO3)nc2ccccc12
12,259,NC(=O)c1ccc(-c2nn(Cc3ccccc3)c3ccccc23)o1
13,142 to 143,O=C(CNC(=O)c1ccc(F)cc1)c1ccoc1
14,194 to 196,N#CC1c2cc(Cl)c(Cl)cc2C=CN1C(=O)c1ccccc1 (configuration not stated)
15,115 to 117,CC1=C(C(=O)Nc2ccc(Cl)cc2)SCCS1
16,199 to 200,CC(C)(C)COc1ccc(-n2cc(C(=O)O)cn2)cc1C#N
17,59.5 to 61,CNC(=C[N+](=O)[O-])NCCCOc1cccc(CCCN(C)C)c1
18,92 to 93,Cc1ccccc1C=Cc1ccccc1
19,140 to 142,NC1=NS(=O)N=C1NCCCN(Cc1ccsc1)c1ccccn1 (configuration not stated)
20,150 to 153,NC(=O)c1n[nH]c(S(=O)(=O)c2ccccc2)n1
21,78.8 to 79.5,COC(=O)[C@H](Cc1ccc(OS(=O)(=O)c2ccc(C)cc2)cc1)NC(=O)OC(C)(C)C
22,184 to 186,Cc1cc(C)c(-c2cn(C)c3nc(N)[nH]c(=O)c23)c(C)c1
23,164 to 165,C=CCN(CC=C)c1nc(NC(C)=O)n2oc(=O)nc2n1
24,71 to 75,CCOC(=O)CCCn1nc(-c2c(-c3ccccc3)nn3ccccc23)ccc1=O
25,160,COc1cccc(OC)c1-c1cc(C(=O)NCC(=O)O)nn1-c1ccc(C(=O)N(C)CCCN(C)C)cc1C(C)C

row,melting point [°C],Compound
1,178,COC(=O)c1cc(Nc2ccccc2)c(Nc2ccccc2)cc1C(=O)OC
2,206,O=C1CCC(=NNc2ccccc2)c2ncccc2N1
3,101 to 104,CCC(C)C=C(C(=O)c1ccc(Cl)cc1Cl)n1cncn1 (configuration not stated)
4,123 to 124,CC(C)C(=O)Nc1cc(C(C)(C)C)on1
5,232 to 233,O=Cc1coc2cc3c(cc2c1=O)OCO3
6,111,COC(=O)CCCC(=O)c1ccc(OC)c(I)n1
7,175 to 176,O=c1c(CCc2cccs2)cc2cccnc2n1-c1cccc([N+](=O)[O-])c1
8,160 to 161,CNC(=O)C1OC1C(=O)c1ccc(Cl)cc1 (configuration not stated)
9,118 to 122,O=C1C2C3C=CC(CC3)C2S(=O)(=O)N1CCCCBr (configuration not stated)
10,108 to 110,O=C(O)C(=O)c1cc(Cl)c(OCCOc2ccc3ccccc3c2)c(Cl)c1
11,168 to 170,CN(C)CCCN=C1CC(c2ccc(Cl)cc2Cl)Cc2[nH]c3ccc(Cl)cc3c(=O)c21 (configuration not stated)
12,111 to 112,OCc1cc(OCc2ccc3ccccc3n2)no1
13,204 to 206,Oc1nnc2ccccc2n1
14,159 to 161,CC(O)Cn1c(CO)nc(C(C)C)c1Sc1cc(Cl)cc(Cl)c1 (configuration not stated)
15,226 to 228,COC(=O)c1cc2ccc(C(=O)NCCN3CCOCC3)cc2[nH]1
16,189,N#Cc1ncn2c(C(F)(F)F)cc(-c3ccc(OCC(F)(F)F)c(C(F)(F)F)c3)nc12
17,40 to 42,CCOc1nc(NCc2ccc(C)o2)nc(Nc2ccc(O)cc2)n1
18,101 to 108,CC(C)N(C[C@H](O)[C@H](Cc1ccccc1)NC(=O)[C@H](CC(N)=O)NCc1ccccn1)NC(=O)OC(C)(C)C
19,127 to 128,COc1cccc(CC(=O)O)c1OCc1cc(OC(C)C)nn1Cc1ccc(Cl)cc1Cl
20,117 to 118,COc1ccc(C(=O)c2cccc(OCc3nc(-c4ccccc4)oc3C)c2)c(O)c1
21,81,CC(C)(C)OC(=O)N1C(=O)C(C2=COc3ccccc3O2)=C(c2cn(C(=O)OC(C)(C)C)c3cc(OCc4ccccc4)ccc23)C1=O
22,66 to 67,CCCCCCCCCCCCCCn1ccc(C(=O)O)c1
23,283,COc1ccc(C2Cc3ccccc3-c3nc(N)c4ccccc4c32)c(OC)c1OC (configuration not stated)
24,60 to 62,Cc1nccn1C[Si](C)(C)Cc1ccc(F)cc1

row,Compound,melting point [°C]
1,CC[C@]12CC[C@H]3[C@@H](CC(Cl)C4=CC(=O)CC[C@@H]43)[C@@H]1C=CC2=O (some centres not stated),136
2,CN1Cc2c(C#CCO)ncn2-c2ccccc2C1=O,240 to 241
3,Cc1ncc(C(=O)N2CC2C#N)s1 (configuration not stated),90 to 92
